Assay [1] has as its target Human immunodeficiency virus type 1 reverse transcriptase (Human immunodeficiency virus 1) (UniProt Q72547). The assay is described as follows: Inhibition of HIV1 reverse transcriptase at 0.5 to 1 ug after 1 hr by RT-PCR analysis relative to control.
For assay [2], the system named is Nucleic Acid. The assay is described as follows: Binding affinity to dT12 DNA by ultraviolet spectra analysis. In kind it is nucleic-acid assay.
For assay [3], the system named is Nucleic Acid. Briefly: Binding affinity to poly(U) RNA by ultraviolet spectra analysis. Format: nucleic-acid assay.
Assay [4] concerns Nucleic Acid. Briefly: Binding affinity to poly(U) RNA by circular dichroism spectra analysis. In kind it is nucleic-acid assay. (Circular dichroism is the unequal absorption of left and right circularly polarised light.)
The subject of assay [5] is Nucleic Acid. Briefly: Binding affinity to dT12 DNA by circular dichroism spectra analysis. Format: nucleic-acid assay.
The test system of assay [6] is Moloney murine leukemia virus. Briefly: Inhibition of Moloney murine leukemia virus reverse transcriptase at 1 ug after 1 hr by RT-PCR analysis relative to control.
For assay [7], the system named is Moloney murine leukemia virus. The assay is described as follows: Inhibition of Moloney murine leukemia virus reverse transcriptase at 0.5 ug after 1 hr by RT-PCR analysis relative to control.

Activity calls are given as the source filed them. The rule behind the calls is not given here.

A word on the inhibition: it is the relative decrease from the control value, in per cent.

As for `Cc1cn(CC(=O)NCCCC[C@H](N)C(=O)NCC[C@H](N)C(=O)NCCCC[C@H](N)C(=O)NCC[C@H](N)C(=O)NCCCC[C@H](N)C(=O)NCC[C@H](N)C(=O)NCCCC[C@H](N)C(=O)NCC[C@H](N)C(=O)NCCCC[C@H](N)C(=O)NCC[C@H](N)C(=O)NCCCC[C@H](N)C(=O)NCC[C@H](N)C(=O)NCCCC[C@H](N)C(=O)NCC[C@H](N)C(=O)NCCCC[C@H](N)C(=O)NCC[C@H](N)C(=O)NCCCC[C@H](N)C(N)=O)c(=O)[nH]c1=O`, the inhibition in assay [1] was found to be 60%; in assay [6] it was 18%; in assay [7], 30%. The outcome with Nucleic Acid [2] and in the assay on Nucleic Acid [5] was inactive. For the same compound, the result with Nucleic Acid [3] and in the assay with Nucleic Acid [4] was Active.

The values are drawn from ChEMBL document CHEMBL1764992, “RNA-binding and viral reverse transcriptase inhibitory activity of a novel cationic diamino acid-based peptide” (J Med Chem, 2011).
